Patent publication US20100048594A1, “USE OF CYTOHESIN INHIBITORS FOR CHEMICALLY INDUCING LONGEVITY” (RHEINISCHE FRIEDRICH-WILHELMS UNIVERSITAT, priority 2006, published 2010)

Columns and labels:
[1] = tested on: 4E-BP; test: Expression of insulin-repressed gene 4E-BP in fed Drosophila larvae (real-time PCR); type: in vivo; details: 10 mg compound per 1 g brewer's yeast, 3 days
Description: Three groups of 100 Drosophila larvae received 10 mg of the compound according to formula (9) mixed with 1 g autoclaved and pulverized brewer's yeast (Brewferm), while three control groups of 100 animals each received the uncut brewer's yeast. This food was administered on water-impregnated filters (Macherey-Nagel) for 3 days at 25° C.
In each case, more than 10 animals of the group were washed thoroughly with water, placed in lysate buffer (NucleoSpin RNA II kit, Macherey & Nagel), and homogenized for 1 minute at maximum speed (Ultra-Turrax T25basic). Total RNA was isolated using the NucleoSpin RNA II Kit (Macherey & Nagel, including DNase I-treatment on the column).
cDNA was produced from each 500 ng total RNA using the QuantiTect Reverse Transcription Kit (Qiagen), according to the manufacturer's instructions, including DNase I treatment. PCR was performed in batches with a total volume of 25 μl (iQ5 Real Time PCR Detection System, BioRad). The batches contained 1 μl of the cDNA batch, in each case 200 nM and 3′- and 5′-primer (Metabion) 12.5 μl 2×iQ5 SYBR Green Supermix (BioRad).
The PCR program that was used comprised 40 cycles with the following steps: 15 seconds denaturing at 95° C., 30 seconds annealing at 59° C. and 30 seconds extension at 72° C. Evaluation was carried out using the iQ5 Optical System software (Version 1.1.1442.OCR, BioRad). […]

[2] = tested on: Drosophila eukaryotic initiation factor 4E binding protein (d4EBP, Thor); test: Transcription rate of insulin target gene d4EBP in insulin-treated Drosophila S2 cells (real-time PCR); type: cell-based; details: 100 μM compound, 10 μg/ml human insulin, insulin alone less than 35%
Description: Drosophila Schneider 2 (S2) cells were cultivated in Schneider's Medium (PAN company) with 10% heat-inactivated fetal calf serum (FCS). 2×10^6 cells were drawn into 35 mm vessels at 25° C. to 80% confluence, washed one time in phosphate buffered saline solution (1×PBS, Gibco), and transferred for twelve hours to Schneider's Medium, without FCS. The cells were then preincubated for two hours with 0.5% DMSO containing Schneider's Medium, without FCS, with or without the compound according to formula (9) or formula (25), with the final concentrations of the compounds according to formulas (9) and (25) being 1 μM, 10 μM and 100 μM. This was followed by a four-hour stimulation with 10 μg/ml human insulin (Sigma).
After washing the cells two times with PBS, total RNA was then isolated from the cells using the NucleoSpin RNA II Kit (Macherey & Nagel), according to the manufacturer's instructions. The first strain cDNA synthesis was performed with every 500 ng RNA, using the QuantiTect Reverse Transcription Kit (Qiagen), according to the manufacturer's instructions. […]
The activity of the insulin signaling pathway was determined from the transcription rate of the insulin target gene Drosophila eukaryotic initiation factor 4E binding protein (d4EBP, Thor). […]

[3] = tested on: IGFBP1 (insulin-like growth factor binding protein); test: Transcription of IGFBP1 in insulin-treated HepG2 liver cells (quantitative PCR); type: cell-based, human
Description: Human hepG2 cells (ECACC) were cultivated in EMEM medium (Cambrex) with the addition of 10% fetal calf serum. 10^5 cells were seeded in 2 ml medium in 6 well plates and were cultivated at 37° C. in a moist atmosphere with 5% CO2 for 1 to 3 days, before being used for experiments.
For human HepG2 cells (ECACC), serum was removed from the medium for 24 hours, the cells were incubated for an additional 12 hours with concentrations of 1.5625 μM, 3.125 μM, 6.25 μM, 12.5 μM, 25 μM or 50 μM of the compound according to formula (9) and with 10 nM insulin. Control cells received DMSO in a concentration corresponding to that of the treated cells.
Total RNA was isolated using the Absolutely RNA Kit (Stratagene), and the cDNA was produced by means of the reverse transcription of 2 μg RNA using the High Capacity cDNA Archive Kit (Applied Biosystems), according to the manufacturer's instructions. Quantitative PCR was performed in 10 μl batches in an iQ5 Cycler (BioRad) by means of the TaqMan Gene Expression Assay (Applied Biosystems) using gene-specific primer (Applied Biosystems), according to the manufacturer's instructions. The data were normalized to the β2-microglobulin expression.

## COc1nc(-c2ccc3c(c2)OCO3)n(-c2ccc(NC(=O)CSc3ccccc3)cc2)n1 [Compound (9)]
[1]
  expression of insulin-repressed gene 4E-BP: more than four times
[2]
  transcription rate of d4EBP as % of that of the untreated control groups: more than 85%
[3]; 12.5 μM compound, 10 nM insulin
  IGFBP1 expression relative to untreated cells: nearly the value of the untreated cells
[3]; 12 hours with compound and 10 nM insulin
  block of the insulin-dependent inhibition of the transcription of IGFBP1: nearly completely block
